{
  "source": "paper PMC11408123",
  "about": "“Deciphering the SAM- and metal-dependent mechanism of O-methyltransferases in cystargolide and belactosin biosynthesis: A structure–activity relationship study” (The Journal of Biological Chemistry, 2024)",
  "key": {"CysG^fl": {"target": "T1, CysG^fl (Kitasatospora cystarginea, UniProt A0A1W6R556)", "T1 construct": "full length, codon-optimised gene, N-terminal His6-SUMO tag removed, E. coli BL21(DE3)", "assay": "HPLC-MS turnover assay, semi-quantitative", "assay_type": "biochemical", "conditions": "1 mM substrate, 1 mM SAM, 5 μM enzyme, 20 mM Ca2+, 50 mM Tris-HCl, 30 °C, 3 h"}, "CysG^ΔN16 [1]": {"target": "T2, CysG^ΔN16 (Kitasatospora cystarginea, UniProt A0A1W6R556)", "T2 construct": "N-terminal truncation lacking the first 16 residues, His6-SUMO tag removed, E. coli BL21(DE3); electron density for residues 17-229", "assay": "HPLC-MS turnover assay, semi-quantitative", "assay_type": "biochemical", "conditions": "1 mM substrate, 1 mM SAM, 5 μM enzyme, 20 mM divalent metal ion, 50 mM Tris-HCl, 30 °C, 3 h"}, "BelI": {"target": "T3, BelI (Streptomyces sp., UniProt A0A1W6R583)", "T3 construct": "full length, codon-optimised gene, N-terminal His6-SUMO tag removed, E. coli BL21(DE3); electron density for residues 17-228", "assay": "HPLC-MS turnover assay, semi-quantitative", "assay_type": "biochemical", "conditions": "1 mM substrate, 1 mM SAM, 5 μM enzyme, 20 mM Ca2+, 50 mM Tris-HCl, 30 °C, 3 h"}, "CysG^ΔN16 [2]": {"target": "T2, CysG^ΔN16", "assay": "X-ray crystal structure, […] Å", "assay_type": "binding", "conditions": "with Ca2+ bound at His122-His123-Asp191; methyl donor site"}, "CysG^ΔN16 [3]": {"target": "T4, CysG^ΔN16 (Kitasatospora cystarginea, UniProt A0A1W6R556, R22K)", "T4 construct": "N-terminal truncation lacking the first 16 residues, His6-SUMO tag removed, E. coli BL21(DE3); electron density for residues 17-229", "assay": "X-ray crystal structure", "assay_type": "binding", "conditions": "methyl donor site"}},
  "data": [
    {"smiles": "CC(C)[C@H](C(=O)O)[C@@H](O)C(=O)O", "note": "[3IPM]", "values": [
      {"measurement": "HPLC-MS turnover assay, semi-quantitative", "setting": "CysG^fl", "value": "The assay was started by the addition of 3IPM for CysG and 3SBM for BelI"},
      {"measurement": "HPLC-MS turnover assay, semi-quantitative", "setting": "CysG^ΔN16 [1]", "value": "N-terminally truncated CysG^ΔN16 variant was active with metal ions available"}
    ]},
    {"smiles": "CCC(C)C(C(=O)O)C(O)C(=O)O", "note": "(centres unmarked) [3SBM]", "values": [
      {"measurement": "HPLC-MS turnover assay, semi-quantitative", "setting": "BelI", "value": "The assay was started by the addition of 3IPM for CysG and 3SBM for BelI"}
    ]},
    {"smiles": "Nc1ncnc2c1ncn2[C@@H]1O[C@H](CSCC[C@H](N)C(=O)O)[C@@H](O)[C@H]1O", "note": "[SAH]", "values": [
      {"measurement": "X-ray crystal structure, 1.5 Å", "setting": "CysG^ΔN16 [2]", "value": "crystal structures of CysG^ΔN16 in complex with S-adenosylhomocysteine (SAH)"}
    ]},
    {"smiles": "C[S+](CC[C@H](N)C(=O)O)C[C@H]1O[C@@H](n2cnc3c(N)ncnc32)[C@H](O)[C@@H]1O", "note": "(some centres unmarked) [SAM]", "values": [
      {"measurement": "X-ray crystal structure", "setting": "CysG^ΔN16 [3]", "value": "CysG^ΔN16-R22K variant (PDB ID: 9FCY) maintains SAM coordination"}
    ]}
  ]
}
